Results reported in article PMC11528125, “Characterization of O-methyltransferases in the biosynthesis of phenylphenalenone phytoalexins based on the telomere-to-telomere gapless genome of Musella lasiocarpa” (Horticulture Research, 2024).

Columns and labels:
Assay in all cases: MTase-Glo methyltransferase assay (SAH luminescence), Michaelis-Menten fit
Assay type in all cases: biochemical, Musella lasiocarpa
Ml01G0494 = tested on: T1, Ml01G0494; conditions: 2 mM SAM, 45°C, 30 min; Tris-HCl; read-out: apparent Km
T1 construct: MBP fusion from pMAL-c4x (EcoRI/SalI), E. coli BL21 (DE3), purified

Ml08G0855 = tested on: T2, Ml08G0855; conditions: 2 mM SAM, 45°C, 30 min; Tris-HCl; read-out: apparent Km
T2 construct: MBP fusion from pMAL-c4x (EcoRI/SalI), E. coli BL21 (DE3), purified

[1] = substrate: O=C1C(O)=Cc2cccc3ccc(-c4ccccc4)c1c23; conditions: 2 mM SAM, 45°C, 30 min, Tris-HCl
Source text: (§1) MTase-Glo methyltransferase assay (SAH luminescence), Michaelis-Menten fit on Ml04G2958 | The apparent Kcat/Km values of Ml01G0494, Ml04G2958, and Ml08G0855 for MLT3 | the apparent Kcat/Km values of Ml01G0494, Ml04G2958, and Ml08G0855 for MLT4

[2] = substrate: O=C1C(O)=Cc2cccc3ccc(-c4ccc(O)cc4)c1c23; conditions: 2 mM SAM, 45°C, 30 min, Tris-HCl
Source text: as §1

`O=C1C(O)=Cc2cccc3ccc(-c4ccc(O)cc4)c1c23` [MLT3] showed a Km (Ml01G0494) of 60.4 ± 16.6 µM and a Km (Ml08G0855) of 111 ± 27.4 µM.

For `O=C1C(O)=Cc2cccc3ccc(-c4ccccc4)c1c23` [MLT4], the Km (Ml01G0494) was 8.51 ± 0.13 µM and the Km (Ml08G0855) was 37.3 ± 10.7 µM.

Molecule `O=C1C(O)=Cc2c(-c3ccc(O)c(O)c3)ccc3cccc1c23` [MLT9] has a Km (Ml01G0494) of 971 µM and a Km (Ml08G0855) of 81.9 µM.

B1: Ml04G2958 (Musella lasiocarpa) (protein)
chain: MAGPHVVDAVGEHSEPYKSASRAHHHHYRHHSSLPLRTMGSVRAAAAALQPSPEEDEEACLQAGQLVSSSVLPMTLKAAIELQLLEIIVGAGPGARLSPADVAAQLPTTNPQAAAMVDRILRLLAAYGIVGCSVEAGPDGRPCRKYGAAPVCKYLTRNEDGVSFAALSLMNQDKVLMESWYHLKDAVLEGGIPFNKAYGMTAFEYHGTDPRFNKVFNEGMRSHSIIITKKLLQVYRGFDDVKVLVDVGGGTGATLHMITSTHPHILGINYDLPHVISDAPPLPGVEHVSGDMFESVPGGDAILMKWILHDWSDEHCAKILKNCWKALPEKGKLIAVECVLPVVPEPSLRTQSVCHVDLIMLAHNPGGKERTEMEFEELAKQAGFSGFKPTYVYASTWALEFTK
notes: MBP fusion from pMAL-c4x (EcoRI/SalI), E. coli BL21 (DE3), purified
B1 gave a Km [1] of 5.30 ± 0.68 µM, a kcat [1] of 0.00033 s⁻¹ and a Km [2] of 69.94 ± 14.71 µM. The kcat [2] was 0.0005 s⁻¹.
